Source: ChEMBL document CHEMBL1159344, “Natural anti-HIV agents. Part IV. Anti-HIV constituents from Vatica cinerea” (J Nat Prod, 2003)

Assays:
[1] = Cytotoxicity against human HOG.R5 cells; type: cell-based
[2] = test system: Human immunodeficiency virus 1; test: Antiviral activity against HIV1 3B infected in human HOG.R5 assessed as inhibition of viral replication by microtiter assay; type: functional, organism-based; conditions: Human immunodeficiency virus 1, 3B
[3] = Selectivity index, ratio of CC50 for HOG.R5 cells to IC50 for HIV1 3B; type: functional
[4] = Cytotoxicity against human HOG.R5 cells at 20 ug/ml; type: cell-based
[5] = test system: Human immunodeficiency virus 1; test: Antiviral activity against HIV1 3B infected in human HOG.R5 assessed as inhibition of viral replication at 2.5 ug/ml by microtiter assay; type: functional; conditions: Human immunodeficiency virus 1, 3B
[6] = test system: Human immunodeficiency virus 1; test: Antiviral activity against HIV1 3B infected in human HOG.R5 assessed as inhibition of viral replication at 20 ug/ml by microtiter assay; type: functional; conditions: Human immunodeficiency virus 1, 3B

SMILES	CC50 [1]	IC50 [2]	Ratio CC50/IC50 [3]	Activity [4]	inhibition at 2.5 µg/mL [5]	inhibition at 20 µg/mL [6]
C=C(C/C=C/C(C)(C)O)[C@H]1CC[C@]2(C)[C@@H]1CC[C@@H]1[C@@]3(C)CC[C@H](O)C(C)(C)[C@@H]3CC[C@]12C	30.3 µM	22.6 µM	1.3	–	–	–
C/C(=C\CC[C@@H](C)[C@H]1CC[C@@]2(C)C3=C(CC[C@]12C)[C@@]1(C)CCC(=O)C(C)(C)[C@@H]1CC3)C(=O)O	14.8 µM	8.6 µM	1.7	–	–	–
C=C(CC[C@H](O)C(=C)C)[C@H]1CC[C@]2(C)[C@@H]1CC[C@@H]1[C@@]3(C)CC[C@H](O)C(C)(C)[C@@H]3CC[C@]12C	14.3 µM	6.1 µM	2.3	–	–	–
CC1=C2[C@@H]3[C@H](CC[C@H](C)[C@]2(O)CC1=O)C3(C)C	85.5 µM	88 µM	>1	Non-toxic	–	–
CC(=O)/C=C/C[C@@H](C)[C@H]1CC[C@@]2(C)[C@@H]3CC[C@H]4C(C)(C)[C@@H](O)CC[C@@]45C[C@@]35CC[C@]12C	12.7 µM	5.9 µM	–	–	21%	–
C=C(C)[C@@H]1CC[C@]2(C(=O)O)CC[C@]3(C)[C@H](CC[C@@H]4[C@@]5(C)CC[C@H](O)C(C)(C)[C@@H]5CC[C@]43C)[C@@H]12 [BETULINIC ACID]	36 µM	32.5 µM	1.1	–	–	–
C=C(C)[C@@H]1CC[C@]2(CO)CC[C@]3(C)[C@H](CC[C@@H]4[C@@]5(C)CC[C@H](O)C(C)(C)[C@@H]5CC[C@]43C)[C@@H]12 [BETULIN]	19.5 µM	13.8 µM	1.4	–	–	–
C=C(C)[C@@H]1CC[C@]2(C(=O)O)CC[C@]3(C)[C@H](CC[C@@H]4[C@@]5(C)CCC(=O)C(C)(C)[C@@H]5CC[C@]43C)[C@@H]12 [BETUNOLIC ACID]	105 µM	21.4 µM	–	–	–	–
CC(CCC[C@@H](C)[C@H]1CC[C@@]2(C)[C@@H]3CC[C@H]4C(C)(C)C(=O)CC[C@@]45C[C@@]35CC[C@]12C)C(=O)O (stereo partly specified) [DIHYDROSCHIZANDRONIC ACID]	43.9 µM	43.9 µM	–	Non-toxic	–	0%
CC1(C)CC[C@]2(CO)CC[C@]3(C)C(=CC[C@@H]4[C@@]5(C)CC[C@H](O)C(C)(C)[C@@H]5CC[C@]43C)[C@@H]2C1 [ERYTHRODIOL]	45.2 µM	45.2 µM	>1	Non-toxic	–	33%
C/C(=C\CC[C@@H](C)[C@H]1CC[C@@]2(C)[C@@H]3CC[C@H]4C(C)(C)C(=O)CC[C@@]45C[C@@]35CC[C@]12C)C(=O)O [MANGIFERONIC ACID]	44.1 µM	44.1 µM	–	Non-toxic	–	19%
C=Cc1c(C)c2cc3nc(c4c5[nH]c(cc6nc(cc1[nH]2)C(C)=C6CC)c(C)c5C(=O)[C@@H]4C(=O)OC)[C@@H](CCC(=O)O)[C@@H]3C [PHEOPHORBIDE A]	33.8 µM	2.5 µM	>13	–	–	–
C[C@H]1[C@H](C)CC[C@]2(C(=O)O)CC[C@]3(C)C(=CC[C@@H]4[C@@]5(C)CC[C@H](O)C(C)(C)[C@@H]5CC[C@]43C)[C@H]12 [URSOLIC ACID]	15.8 µM	14.7 µM	4.9	–	–	–
CC(=O)/C=C/C[C@@H](C)[C@H]1CC[C@@]2(C)[C@@H]3CC[C@H]4C(C)(C)C(=O)CC[C@@]45C[C@@]35CC[C@]12C [VATICINONE]	21.5 µM	15.3 µM	1.4	–	–	–
